From patent publication US11369615B2, “Agent for improving mitochondrial dysfunction, preventative or therapeutic agent for diseases or symptoms caused by mitochondrial dysfunction, and applications therefor” (JICHI MEDICAL UNIVERSITY, priority 2017, dated 2022)

Key:
[1] = system: ME54 cells derived from a patient with Leigh syndrome; experiment: Tolerance to oxidative stress by BSO, ME54 cells; format: cell-based, human
Protocol: (§1) The oxidative stress test is a known pharmaceutical agent screening method, which was carried out under the conditions where cell death was induced by addition of L-buthionine-(S,R)-sulfoximine (BSO) (Arce P M et al., ACS Med Chem Lett., May 31, 2011, Vol. 2 (8), p. 608-13, doi: 10.1021/m1200095w. eCollection, Aug. 11, 2011, PubMed PMID: 24900356; PubMed Central PMCID: PMC4018135). BSO inhibits synthesis of glutathione serving as an antioxidant in the cells to deplete glutathione, raising the level of active oxygen within the cells. The procedure of the test is as follows. The cells to be used in the test were seeded in a 96-well plate for cell culture so as to satisfy a concentration of 5,000 cells/well and 80 μL medium/well and cultured in a CO2 incubator (37° C., 5% CO2) for 24 hours. Twenty four hours after the culture, BSO and each of the pharmaceutical agents (final concentration of 1 μM) of the drug library were together added to the cells within the wells. Forty eight hours after the addition, survival rates were determined. The survival rates were determined by measuring absorbance of formazan generated by use of cell count reagent SF (Nacalai Tesque, Inc.). As a positive control compound, idebenone (Non Patent Literature 1) approved as a therapeutic agent for Leber's hereditary optic neuritis in Europe, was used in the same concentration. […]

[2] = system: Promo 1 cells as normal cells; experiment: Tolerance to oxidative stress by BSO, Promo1 normal cells; format: cell-based, human; details: Promo 1 normal cells; concentration range of 1 to 1000 μM
Protocol: as §1

CCCCS(=N)(=O)CCC(N)C(=O)O [BSO, L-buthionine-(S,R)-sulfoximine]
concentration at which the survival rate significantly decreased [1]: ≥ 50 µM
difference in survival rates [2]: no significant difference
